Bridge positions count the residues as written; N and C are the ends. Peptide text beside a SMILES is read from it.
Legend:
[1] = target: T1, Interleukin-1 beta (Homo sapiens, UniProt P01584)
Description: Antagonist activity at human IL-1 beta assessed as inhibition of interaction of IL-1beta/IL-1R1 expressed in HEK293-Blue cells by measuring reduction in SEAP activity preincubated with IL-1 beta for 1 hr followed by incubation with cells and measured after overnight by reporter gene assay

[2] = target: T1, Interleukin-1 beta; remark: listed apart in the source
[3] = target: T1, Interleukin-1 beta; remark: listed apart in the source
Description: Antagonist activity at human IL-1 beta assessed as inhibition of interaction of IL-1 beta/IL-1R1 expressed in NHDF cells by measuring reduction in IL-6 production preincubated with IL-1 beta for 1 hr followed by incubation with cells and measured after 6 hrs by ELISA

[4] = target: T2, Interleukin-1 alpha (Homo sapiens, UniProt P01583)
T2 sequence (P01583 whole entry): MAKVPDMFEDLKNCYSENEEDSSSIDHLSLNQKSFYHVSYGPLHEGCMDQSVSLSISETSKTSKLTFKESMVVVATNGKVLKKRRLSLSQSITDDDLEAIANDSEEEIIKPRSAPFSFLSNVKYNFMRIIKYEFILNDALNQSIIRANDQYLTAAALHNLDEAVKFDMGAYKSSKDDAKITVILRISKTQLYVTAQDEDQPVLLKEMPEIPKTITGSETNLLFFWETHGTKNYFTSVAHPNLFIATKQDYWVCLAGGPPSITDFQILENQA
Description: Antagonist activity at human recombinant His-tagged wild type IL-1 alpha assessed as inhibition of IL-1 alpha/Alexa 647 labeled human IL-1R1 (1 to 332) interaction preincubated with IL-1 alpha for 1 hr followed by IL-1R1 addition and measured after 1 hr by TR-FRET assay

[5] = target: T1, Interleukin-1 beta; remark: listed apart in the source
Description: Antagonist activity at human recombinant His-tagged wild type IL-1 beta assessed as inhibition of IL-1 beta/Alexa 647 labeled human IL-1R1 (1 to 332) interaction preincubated with IL-1 beta for 1 hr followed by IL-1R1 addition and measured after 1 hr by TR-FRET assay

T1 sequence (P01584 117-269 limits assumed): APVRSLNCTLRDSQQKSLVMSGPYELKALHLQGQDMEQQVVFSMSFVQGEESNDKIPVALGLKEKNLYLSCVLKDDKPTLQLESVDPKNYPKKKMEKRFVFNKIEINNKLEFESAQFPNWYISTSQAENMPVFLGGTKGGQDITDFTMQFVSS

Row | Ki [2] [µM] | IC50 [4] [µM] | IC50 [5] [µM] | Compound | also measured
1 | < 10 |  |  | Cc1ccc2c(c1)NC(=O)[C@@]2(c1cn[nH]c1)c1cc(-c2ccc(C(=O)O)cc2C(=O)O)ccc1O | IC50 [1]: 5.3 µM; IC50 [3]: 7.9 µM
2 |  | > 200 | > 200 | CC(C)c1cc(-c2cc(C(=O)O)cn3cc(C(=O)N4CCCN(S(=O)(=O)c5ccccc5)CC4)nc23)ccc1C=O | 
3 | 43 |  |  | Cc1cc(O)c(C(c2cc(C3CC(C(=O)O)C3)ccc2O)c2c[nH]nc2C(=O)O)cc1C (racemic) | 

Second part, the compound before the results:

Row | Compound | Ki [2] [µM] | IC50 [4] [µM] | IC50 [5] [µM] | also measured
4 | CC(C)c1cc(-c2cc(C(=O)O)cn3cc(C(=O)N4CCN(S(=O)(=O)c5ccccc5)CC[C@H]4C(=O)NCCN4CCOCC4)nc23)ccc1C=O |  | 99 | 8.3 | 
5 | CC(C)c1cccc(-c2cc(C(=O)O)cn3cc(C(=O)N4CCN(S(=O)(=O)c5ccccc5)CCC4C(=O)NCCN4CCOCC4)nc23)c1 (configuration not stated) |  |  | > 200 | 
6 | O=Cc1ccc(-c2cc(C(=O)O)cn3cc(C(=O)N4CCN(S(=O)(=O)c5ccccc5)CC[C@H]4C(=O)NCCN4CCOCC4)nc23)cc1C(F)(F)F |  | > 200 | 1.2 | 
7 | CC(C)c1cc(-c2cc(C(=O)O)cn3cc(C(=O)N4CCN(S(=O)(=O)c5ccccc5)CC[C@@H]4C(=O)NCCN4CCOCC4)nc23)ccc1C=O |  | > 200 | 78.4 | 
8 | OC(c1ccc(OC(F)F)cc1)(c1cccc(Br)c1)c1cc[nH]n1 (racemic) | > 1000 |  |  | 
9 | CC(C)c1cc(-c2cc(C(=O)O)cn3cc(C(=O)N4CCN(S(=O)(=O)c5ccccc5)CCC4C(=O)NCCN4CCOCC4)nc23)ccc1C=O (racemic) |  |  | 11 | 
10 | NCCCC[C@H](NC(=O)CNC(=O)[C@@H]1CSCC(=O)N[C@@H](Cc2ccccc2)C(=O)N[C@@H](Cc2c[nH]c3ccccc23)C(=O)N[C@@H](CC(=O)O)C(=O)N[C@@H](CO)C(=O)N[C@@H](Cc2c[nH]c3ccccc23)C(=O)NCC(=O)N[C@@H](Cc2ccc(O)cc2)C(=O)N[C@@H](Cc2c[nH]c3ccccc23)C(=O)N[C@@H](Cc2ccc(O)cc2)C(=O)NCC(=O)N2CCC[C@H]2C(=O)N[C@@H](Cc2c[nH]c3ccccc23)C(=O)N[C@@H](CC(=O)O)C(=O)N1)C(N)=O ({CH2CO}-FWDSWGYWYGPWDCGK-NH2; thioether N-14) |  | > 200 | 14 | 

From ChEMBL document CHEMBL5506044, “Ligandability Assessment of IL-1β by Integrated Hit Identification Approaches” (J Med Chem, 2024)
